Patent publication US20190062684A1, “Microfluidic System for Reproducing Functional Units of Tissues and Organs In Vitro” (NORTIS, INC., priority 2012, published 2019)

Tested on: vascular-cell tube (engineered from primary human microvascular endothelial cells)

O=C(O)c1ccccc1-c1c2cc(F)c(=O)cc-2oc2cc(O)c(F)cc12 [Oregon Green]
average permeability through the vascular-cell tube wall: 25 ×10⁻⁶ cm/s
